Measurements reported in patent US20190151346A1, “COMBINATIONS THERAPIES FOR THE TREATMENT OF CANCER” (INSERM (INSTITUTE NATIONAL DE LA SANTÉ ET DE LA RECHERCHE …, priority 2016, published 2019).

How the values were obtained:
Assay type in all cases: cell-based
EGFR [1] = assay: Tyrosine phosphorylation by Western blotting: EGFR phosphorylation in TNBC cell lines; conditions: for IL-17E- and EGF-induced phosphorylation of Y1086 EGFR: AZM475271 10 μM pre-treatment, FIG. 2A
Method: BT20 and MDA-MB468 triple negative (HER2-, ER-, PR-) were obtained from American Type Culture Collection (ATCC N°HTB19, and ATCC N°HTB132, respectively). […] MDA-MB468 cells were grown in a complete DMEM-F12 media with glutamine, 10% FCS and penicillin—streptomycin. All cells were maintained in a humidified 5% CO2 atmosphere at 37° C. All experiments were conducted with cells at confluency and starved for an overnight.
(§1) Cells (3×10^5) were seeded in 6-well plates in complete medium for 24 hours then starved for another overnight. Cells were then stimulated with IL-17E (10 ng/ml), EGF (10 ng/ml), or a combination of both for 30 min in serum-free medium. Cells were then lysed in 1% Triton X100 buffer and left on ice for 1 hours. Protein samples were then subjected to 8% SDS-PAGE. Western blotting using specific antibodies assessed then the phosphorylation of the various kinases.

Src = assay: Tyrosine phosphorylation by Western blotting: Src phosphorylation in TNBC cell lines
Method: (§2) BT20 and MDA-MB468 triple negative (HER2-, ER-, PR-) were obtained from American Type Culture Collection (ATCC N°HTB19, and ATCC N°HTB132, respectively). The LumB, and Her2-, ER-, PR-negative IJG-1731 cell line was previously established at the laboratory as described (Mombelli et al. Sci Rep. 2015 Jul. 8; 5:11874.) BT20 and IJG-1731 cells were grown in complete RPMI-1640 media with L-glutamine, supplemented with 10% fetal calf serum (FCS) and penicillin—streptomycin solution (100 μg/ml each) (Life technology, Saint-Aubain, France). MDA-MB468 cells were grown in a complete DMEM-F12 media with glutamine, 10% FCS and penicillin—streptomycin. All cells were maintained in a humidified 5% CO2 atmosphere at 37° C. All experiments were conducted with cells at confluency and starved for an overnight.
as §1

EGFR [2] = assay: Immunofluorescence microscopy: localization of EGFR; conditions: MDA-MB468; 10 ng/ml, 2 hours; FIG. 4A, FIG. 7
Method: as §2
Cells (4.10^3) were grown on Lab-Tek chambers slide in their respective complete culture medium for 24 hours then starved for an overnight. Cells were then stimulated with IL-17E (long/ml), EGF (10 ng/ml) or a combination of both for 2 hours at 37° C., washed, and fixed with 4% paraformaldehyde (PFA)-PBS solution at 4° C. […] Slides were mounted with mounting medium containing Dapi then visualized with a Leica DMRB fluorescence microscope and images analysis was performed with the Archimed Software (Microvision).

STAT3 = assay: Cellular fractionation and Western blotting: STAT3 and pSTAT3 translocation to the nucleus; conditions: MDA-MB468 fractions
Method: as §2
Cells (3×10^5) were seeded in 6-well plates in complete medium for 24 hours then starved for another overnight. Cells were stimulated for 2 hours at 37° C. with IL-17E (10 ng/ml), EGF (long/ml), or a combination of both as indicated. Cells were then washed with PBS and lysed in a lysis buffer (HEPES 10 mM, MgCl2 15 mM KCl 10 mM, DTT 0.5 mM, PMSF 0.2 mM, 1 mM Na3VO4, 10 mM NaF, 0.5% Nonidet P-40). […] Protein concentrations were determined by using Bradford method. […]

| Compound | IL-17E- and EGF-induced phosphorylation of Y1086 EGFR (EGFR [1]; IJG-1731 and BT20 cell lines) | IL-17E- and EGF-induced phosphorylation of Y1086 EGFR (EGFR [1]; MDA-MB468) | EGFR activation downstream IL-17E or IL-17B (EGFR [1]; TNBC cells, Src specific inhibitor, discussion, FIG. 6) | IL-17E- and EGF-induced Src phosphorylation (Src; TNBC cell lines pre-treated with AZM475271 (10 μM), then stimulated with IL-17E or EGF (10 ng/ml), FIG. 2A) | phosphorylation of Src at Y416 at suboptimal concentrations (Src; MDA-MB468, IL-17E 1 ng/ml alone or EGF 0.1-1 ng/ml alone, FIG. 3) | translocation of EGFR (immunofluorescence) (EGFR [2]) | phosphorylation of STAT3α and β (STAT3) |
| --- | --- | --- | --- | --- | --- | --- | --- |
| COc1ccc(Cl)c(Nc2ncnc3cc(OCC4CCN(C)CC4)c(OC)cc23)c1 [AZM475271] | abolished | to a lesser extent | inhibition | inhibited | – | – | – |
| EGF: epidermal growth factor, EGFR ligand used as stimulus (NSDSECPLSHDGYCLHDGVCMYIEALDKYACNCVVGYIGERCQYRDLKWWELR; Epidermal growth factor; UniProt P01133 971-1023, looked up) | – | – | – | – | failed to induce any significant phosphorylation | induced strong translocation of EGFR from the membrane to the nucleus | induced the phosphorylation |
